Laboratory results reported in the NIST ThermoML archive (doi:10.1021/je800925v).

Assay: xn = mol fraction of the nth substance listed
Details: Liquid

CCCCCC [hexane] + CCO
Details	mass density [kg/m3]	viscosity [mPa·s]
273.15 K, x2 = 0.101	688.8	0.3638
273.15 K, x2 = 0.198	694.5	0.4
273.15 K, x2 = 0.302	702	0.4511
273.15 K, x2 = 0.401	712.1	0.5478
273.15 K, x2 = 0.496	721.4	0.6415
273.15 K, x2 = 0.6	732.7	0.77
273.15 K, x2 = 0.701	744.1	0.8963
273.15 K, x2 = 0.793	760.4	1.096
273.15 K, x2 = 0.901	781.1	1.377
275.65 K, x2 = 0.101	686.5	0.3563
275.65 K, x2 = 0.198	692.3	0.3904
275.65 K, x2 = 0.302	699.7	0.4388
275.65 K, x2 = 0.401	709.8	0.5294
275.65 K, x2 = 0.496	719.2	0.6182
275.65 K, x2 = 0.6	730.5	0.7386
275.65 K, x2 = 0.701	741.9	0.8583
275.65 K, x2 = 0.793	758.3	1.047
275.65 K, x2 = 0.901	779	1.311
278.15 K, x2 = 0.101	684.3	0.3492
278.15 K, x2 = 0.198	690	0.3812
278.15 K, x2 = 0.302	697.5	0.4269
278.15 K, x2 = 0.401	707.6	0.5119
278.15 K, x2 = 0.496	716.9	0.5956
278.15 K, x2 = 0.6	728.3	0.709
278.15 K, x2 = 0.701	739.7	0.8224
278.15 K, x2 = 0.793	756.1	1
278.15 K, x2 = 0.901	776.8	1.25
280.65 K, x2 = 0.101	682	0.3422
280.65 K, x2 = 0.198	687.8	0.3722
280.65 K, x2 = 0.302	695.2	0.4154
280.65 K, x2 = 0.401	704.9	0.4927
280.65 K, x2 = 0.496	714.7	0.5741
280.65 K, x2 = 0.6	726.1	0.6809
280.65 K, x2 = 0.701	737.4	0.7884
280.65 K, x2 = 0.793	753.9	0.9561
280.65 K, x2 = 0.901	774.7	1.191
283.15 K, x2 = 0.101	679.8	0.3352
283.15 K, x2 = 0.198	685.5	0.3635
283.15 K, x2 = 0.302	692.9	0.4042
283.15 K, x2 = 0.401	702.7	0.4766
283.15 K, x2 = 0.496	712.4	0.5537
283.15 K, x2 = 0.6	723.8	0.6543
283.15 K, x2 = 0.701	735.2	0.7562
283.15 K, x2 = 0.793	751.7	0.9147
283.15 K, x2 = 0.901	772.5	1.136
285.65 K, x2 = 0.101	677.5	0.3283
285.65 K, x2 = 0.198	683.2	0.3549
285.65 K, x2 = 0.302	690.6	0.3934
285.65 K, x2 = 0.401	700.4	0.4614
285.65 K, x2 = 0.496	710.1	0.5343
285.65 K, x2 = 0.6	721.5	0.629
285.65 K, x2 = 0.701	733	0.7257
285.65 K, x2 = 0.793	749.5	0.8754
285.65 K, x2 = 0.901	770.4	1.085
288.15 K, x2 = 0.101	675.2	0.3215
288.15 K, x2 = 0.198	680.9	0.346
288.15 K, x2 = 0.302	688.3	0.383
288.15 K, x2 = 0.401	698.1	0.4239
288.15 K, x2 = 0.496	707.9	0.5159
288.15 K, x2 = 0.6	719.3	0.6052
288.15 K, x2 = 0.701	730.8	0.6967
288.15 K, x2 = 0.793	747.3	0.8384
288.15 K, x2 = 0.901	768.2	1.036
290.65 K, x2 = 0.101	672.8	0.3147
290.65 K, x2 = 0.198	678.6	0.3366
290.65 K, x2 = 0.302	686	0.3728
290.65 K, x2 = 0.401	695.8	0.433
290.65 K, x2 = 0.496	705.5	0.498
290.65 K, x2 = 0.6	717	0.5822
290.65 K, x2 = 0.701	728.5	0.6691
290.65 K, x2 = 0.793	745.1	0.8031
290.65 K, x2 = 0.901	766	0.9898
293.15 K, x2 = 0	659.8	0.2979
293.15 K, x2 = 0.101	670.5	0.308
293.15 K, x2 = 0.198	676.2	0.3264
293.15 K, x2 = 0.302	683.7	0.3597
293.15 K, x2 = 0.401	693.5	0.3995
293.15 K, x2 = 0.496	703.2	0.4493
293.15 K, x2 = 0.6	714.7	0.5606
293.15 K, x2 = 0.701	726.2	0.643
293.15 K, x2 = 0.793	742.8	0.7696
293.15 K, x2 = 0.901	763.9	0.9463
295.65 K, x2 = 0.101	668.2	0.3016
295.65 K, x2 = 0.198	673.9	0.3161
295.65 K, x2 = 0.302	681.4	0.3499
295.65 K, x2 = 0.401	691.1	0.3949
295.65 K, x2 = 0.496	700.9	0.4437
295.65 K, x2 = 0.6	712.4	0.5401
295.65 K, x2 = 0.701	724	0.6182
295.65 K, x2 = 0.793	740.6	0.7377
295.65 K, x2 = 0.901	761.7	0.9052
298.15 K, x2 = 0	655.3	0.2865
298.15 K, x2 = 0.101	665.9	0.2953
298.15 K, x2 = 0.198	671.5	0.3049
298.15 K, x2 = 0.302	679	0.3398
298.15 K, x2 = 0.401	688.8	0.3755
298.15 K, x2 = 0.496	–	0.4288
298.15 K, x2 = 0.6	710.1	0.5021
298.15 K, x2 = 0.701	721.7	0.5944
298.15 K, x2 = 0.793	738.3	0.7071
298.15 K, x2 = 0.901	759.5	0.8663
